Assay results as given in PubChem BioAssay (NCI).
Values joined by “and” are separate entries in the source; they are usually repeats but may differ in a detail not shown here. Identical values can stand only once.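 Compound exposure: 48 hours, 5 concentrations, 96-well plates. GI50 is the concentration that inhibits growth by half. The concentration for full growth arrest is given as TGI.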

Assays:
Assay in all cases: NCI tumour cell line growth inhibition, 48 h
[1] = system: HT29 colon
[2] = system: CCRF-CEM leukemia
[3] = system: A549 NSCLC
[4] = system: OVCAR-3 ovarian
[5] = system: NCI-H226 lung
[6] = system: EKVX NSCLC
[7] = system: OVCAR-4 ovarian
[8] = system: HOP-18 NSCLC
[9] = system: TK-10 renal
[10] = system: PC-3 prostate

Compound | TGI [1] | TGI [2] | TGI [3] | TGI [4] | TGI [5] | TGI [6] | TGI [7] | TGI [8] | TGI [9] [µM] | TGI [10] [µM] | GI50 [8] [µM]
CC(NCCS(=O)(=O)O)C(=O)O (stereo not given) | > 100 µM | > 100 µM | > 100 µM | > 69.4 µM | > 100 µM | > 100 µM | > 100 µM | > 100 µM | – | – | –
Nc1nc(N)c2ncn(CC(CO)CC(c3ccccc3)P(=O)(O)O)c2n1 (stereo not given) | > 100 µM | > 100 µM | > 100 µM | > 100 µM | > 100 µM | > 100 µM | – | > 100 µM | > 100 | – | –
Fc1cccc2nc(-c3ccccc3)cc(OCc3ccccc3)c12 | > 100 µM | > 100 µM | > 100 µM | > 100 µM | > 100 µM | > 100 µM | > 100 µM | – | > 100 | > 100 | –
c1ccc(N=NNNc2ccc(-c3nc4ccccc4[nH]3)cc2)cc1 | 94.7 µM | 56.1 µM | > 100 µM | 38.1 µM | > 100 µM | > 100 µM | > 100 µM | – | > 100 | 82.3 | –
COc1cc2[nH]c(-c3ccccc3)cc(=O)c2cc1OC | 56.7 µM | > 65.6 µM | > 69.8 µM | > 100 µM | 53.6 µM | > 100 µM | > 100 µM | – | 98.7 | > 100 | –
COc1cc2c(cc1OCCCC(=O)Nc1cc(C(=O)Nc3cc(C(=O)NCCCN(C)C)n(C)n3)n(C)n1)N=CC1CCCN1C2=O (stereo not given) | 30.8 µM | 29.7 µM | > 100 µM | 33 µM | > 100 µM | > 100 µM | 26.5 µM | – | 35.7 | 99.3 | –
CC(=O)Oc1ccc2c(c1)CC[C@@H]1C2[C@@H](O[N+](=O)[O-])C[C@@]2(C)C1CC[C@@H]2O (stereo not given in full) | > 76.6 µM | > 83.2 µM | > 100 µM | > 86.9 µM | > 100 µM | 93.6 µM | > 100 µM | – | > 100 | > 100 | –
Cc1c2cc[n+](C)cc2c(C)c2c1[nH]c1ccccc12 | 62.7 µM and 71.6 µM | 41.9 µM and 35.3 µM | 5.55 µM and 8.83 µM | 19.7 µM and 21.3 µM | 1.7 µM and 1.61 µM | 11.1 µM and 14 µM | 15 µM and 10.9 µM | 21.3 µM and 32 µM | > 100 | > 100 | 5.47
CN(C)c1ccc(C(c2ccc(N(C)C)cc2)c2ccc([N+](=O)[O-])cc2)cc1 | > 100 µM | > 100 µM | > 100 µM | > 100 µM | > 100 µM | > 100 µM | > 100 µM | – | > 100 | > 100 | –
Brc1ccc2c(c1)C1=C(CO2)Cc2ccccc2O1 | 62.8 µM | > 100 µM | 48 µM | 31.8 µM | 40.1 µM | 54.9 µM | 33.6 µM | – | 37.2 | 32.9 | –
COc1ccc2nc3c([N+](=O)[O-])ccc4c3c(c2c1)NCCN4C | 12.4 µM | > 100 µM | 2.57 µM | 5.62 µM | 3.59 µM | 6.61 µM | 3.57 µM | – | 51.9 | 4.54 | –
CC1(C)CCOC(=O)C(Cl)CC1Cl (stereo not given) | > 100 µM | > 100 µM | > 100 µM | > 100 µM | > 100 µM | > 100 µM | > 100 µM | – | > 100 | > 100 | –
NNC(=O)c1ccccc1NC(=O)/C(=C/c1ccccc1)NC(=O)c1ccccc1 | > 100 µM | > 100 µM | > 100 µM | > 100 µM | > 100 µM | > 100 µM | > 100 µM | – | > 100 | > 100 | –
Cc1ccc2c3c1O[C@H]1c4nc5ccccc5cc4C[C@@]4(O)[C@@H](C2)N(CC2CC2)CC[C@]314 | 16.7 µM | 22.3 µM | 26.8 µM | 25.3 µM | 29.5 µM | 37.9 µM | 46 µM | – | 54.6 | 26.5 | –
O=[N+]([O-])C(=C(NCc1ccccc1)NCc1ccccc1)C(Cl)=C(Cl)Cl | > 100 µM | 50.7 µM | > 100 µM | 69.2 µM | 90.7 µM | > 100 µM | > 100 µM | – | > 100 | > 100 | –
